Literature values as cited in publication PMC3433420 (PLoS ONE, 2012).
Where two headings read alike, the source gives them in different places.

Target: SH2 and PTB domains
Settings: cited from earlier work
Description: Supplement pone.0044471.s022.xlsx, sheet "Most recent PM interactions" | column: Kd || Supplement pone.0044471.s022.xlsx, sheet "All original PM interactions" | column: Kd

[1] = protein ABL2, ref Jones et al. 2006 / Kaushansky et al. Mol Biosys 2008 / Kaushansky et al. Chem and Biol 2008
[2] = protein BLK, ref Jones et al. 2006 / Kaushansky et al. Mol Biosys 2008 / Kaushansky et al. Chem and Biol 2008
[3] = Protein BCAR3, original PM interactions, ref Jones et al. 2006 / Kaushansky et al. Chem and Biol 2008
[4] = Protein CRKL, original PM interactions, ref Jones et al. 2006 / Kaushansky et al. Chem and Biol 2008
[5] = Protein SYK-NC, original PM interactions, ref Jones et al. 2006 / Kaushansky et al. Chem and Biol 2008
[6] = protein ABL2, ref Jones et al. 2006 / Kaushansky et al. Chem and Biol 2008
[7] = protein NCK2, ref Jones et al. 2006 / Kaushansky et al. Chem and Biol 2008
[8] = protein SYK-NC, ref Jones et al. 2006 / Kaushansky et al. Chem and Biol 2008

DSNFpYRALMDEEd [ErbB1 pY998, N-terminally rhodamine-labeled 13-mer phosphopeptide]
Kd [1]: 2000 nM | Kd [2]: 190 nM | Kd (protein FES, ref Jones et al. 2006 / Kaushansky et al. Mol Biosys 2008 / Kaushansky et al. Chem and Biol 2008): 1230 nM | Kd (protein GRB10, ref Jones et al. 2006 / Kaushansky et al. Mol Biosys 2008 / Kaushansky et al. Chem and Biol 2008): 2000 nM | Kd (protein ITK, ref Jones et al. 2006 / Kaushansky et al. Mol Biosys 2008 / Kaushansky et al. Chem and Biol 2008): 280 nM | Kd (protein LCK, ref Jones et al. 2006 / Kaushansky et al. Mol Biosys 2008 / Kaushansky et al. Chem and Biol 2008): 2000 nM | Kd (protein PIK3R1-NC, ref Jones et al. 2006 / Kaushansky et al. Mol Biosys 2008 / Kaushansky et al. Chem and Biol 2008): 240 nM | Kd (protein PIK3R3-NC, ref Jones et al. 2006 / Kaushansky et al. Mol Biosys 2008 / Kaushansky et al. Chem and Biol 2008): 970 nM | Kd (protein PTPN6-NC, ref Jones et al. 2006 / Kaushansky et al. Mol Biosys 2008 / Kaushansky et al. Chem and Biol 2008): 2000 nM | Kd (protein RASA1-N, ref Jones et al. 2006 / Kaushansky et al. Mol Biosys 2008 / Kaushansky et al. Chem and Biol 2008): 1060 nM | Kd (protein RASA1-NC, ref Jones et al. 2006 / Kaushansky et al. Mol Biosys 2008 / Kaushansky et al. Chem and Biol 2008): 1380 nM | Kd (protein SH2B3, ref Jones et al. 2006 / Kaushansky et al. Mol Biosys 2008 / Kaushansky et al. Chem and Biol 2008): 1360 nM | Kd (protein SH2B, ref Jones et al. 2006 / Kaushansky et al. Mol Biosys 2008 / Kaushansky et al. Chem and Biol 2008): 2000 nM | Kd (protein SH2D2A, ref Jones et al. 2006 / Kaushansky et al. Mol Biosys 2008 / Kaushansky et al. Chem and Biol 2008): 2000 nM | Kd (protein SH2D3C, ref Jones et al. 2006 / Kaushansky et al. Mol Biosys 2008 / Kaushansky et al. Chem and Biol 2008): 2000 nM | Kd (protein SHC1-PTB, ref Jones et al. 2006 / Kaushansky et al. Mol Biosys 2008 / Kaushansky et al. Chem and Biol 2008): 1150 nM | Kd (protein SHC2-PTB, ref Jones et al. 2006 / Kaushansky et al. Mol Biosys 2008 / Kaushansky et al. Chem and Biol 2008): 980 nM | Kd (protein SLA, ref Jones et al. 2006 / Kaushansky et al. Mol Biosys 2008 / Kaushansky et al. Chem and Biol 2008): 1600 nM | Kd (protein SOCS1, ref Jones et al. 2006 / Kaushansky et al. Mol Biosys 2008 / Kaushansky et al. Chem and Biol 2008): 2000 nM | Kd (protein SOCS2, ref Jones et al. 2006 / Kaushansky et al. Mol Biosys 2008 / Kaushansky et al. Chem and Biol 2008): 2000 nM | Kd (protein SRC, ref Jones et al. 2006 / Kaushansky et al. Mol Biosys 2008 / Kaushansky et al. Chem and Biol 2008): 1140 nM | Kd (protein SYK-NC, ref Jones et al. 2006 / Kaushansky et al. Mol Biosys 2008 / Kaushansky et al. Chem and Biol 2008): 910 nM | Kd (protein TNS4, ref Jones et al. 2006 / Kaushansky et al. Mol Biosys 2008 / Kaushansky et al. Chem and Biol 2008): 2000 nM | Kd (protein YES1, ref Jones et al. 2006 / Kaushansky et al. Mol Biosys 2008 / Kaushansky et al. Chem and Biol 2008): 720 nM | Kd (protein ZAP70-NC, ref Jones et al. 2006 / Kaushansky et al. Mol Biosys 2008 / Kaushansky et al. Chem and Biol 2008): 1650 nM

AEDEpYVNEPLYLd [ErbB4 pY1202, N-terminally rhodamine-labeled 13-mer phosphopeptide]
Kd (protein SYK-N, ref Kaushansky et al. Chem and Biol 2008): 6 nM

EEKEpYHAEGGKVd [ErbB1 pY869, N-terminally rhodamine-labeled 13-mer phosphopeptide]
Kd [1]: 2000 nM | Kd [2]: 1710 nM

PGGDpYAAMGACPd [ErbB3 pY1276, N-terminally rhodamine-labeled 13-mer phosphopeptide]
Kd (Protein ABL1, original PM interactions, ref Jones et al. 2006 / Kaushansky et al. Chem and Biol 2008): 2000 nM | Kd [3]: 2000 nM | Kd [4]: 440 nM | Kd (Protein PIK3R3-C, original PM interactions, ref Jones et al. 2006 / Kaushansky et al. Chem and Biol 2008): 500 nM | Kd (Protein PIK3R3-N, original PM interactions, ref Jones et al. 2006 / Kaushansky et al. Chem and Biol 2008): 500 nM | Kd (Protein PTK6, original PM interactions, ref Jones et al. 2006 / Kaushansky et al. Chem and Biol 2008): 440 nM | Kd (Protein SH2B2, original PM interactions, ref Jones et al. 2006 / Kaushansky et al. Chem and Biol 2008): 2000 nM | Kd (Protein SHC1, original PM interactions, ref Jones et al. 2006 / Kaushansky et al. Chem and Biol 2008): 600 nM | Kd (Protein SLA2, original PM interactions, ref Jones et al. 2006 / Kaushansky et al. Chem and Biol 2008): 2000 nM | Kd (Protein SLA, original PM interactions, ref Jones et al. 2006 / Kaushansky et al. Chem and Biol 2008): 2000 nM | Kd [5]: 600 nM | Kd (Protein TENC1, original PM interactions, ref Jones et al. 2006 / Kaushansky et al. Chem and Biol 2008): 2000 nM | Kd (Protein VAV1, original PM interactions, ref Jones et al. 2006 / Kaushansky et al. Chem and Biol 2008): 2000 nM | Kd [6]: 150 nM | Kd (protein CRK, ref Jones et al. 2006 / Kaushansky et al. Chem and Biol 2008): 260 nM | Kd (protein CRKL, ref Jones et al. 2006 / Kaushansky et al. Chem and Biol 2008): 440 nM | Kd (protein HCK, ref Jones et al. 2006 / Kaushansky et al. Chem and Biol 2008): 580 nM | Kd (protein NCK1, ref Jones et al. 2006 / Kaushansky et al. Chem and Biol 2008): 210 nM | Kd [7]: 550 nM | Kd (protein PIK3R1-N, ref Jones et al. 2006 / Kaushansky et al. Chem and Biol 2008): 530 nM | Kd (protein PIK3R1-NC, ref Jones et al. 2006 / Kaushansky et al. Chem and Biol 2008): 55 nM | Kd (protein PIK3R2-C, ref Jones et al. 2006 / Kaushansky et al. Chem and Biol 2008): 930 nM | Kd (protein PIK3R2-N, ref Jones et al. 2006 / Kaushansky et al. Chem and Biol 2008): 120 nM | Kd (protein PIK3R2-NC, ref Jones et al. 2006 / Kaushansky et al. Chem and Biol 2008): 80 nM | Kd (protein PIK3R3-C, ref Jones et al. 2006 / Kaushansky et al. Chem and Biol 2008): 500 nM | Kd (protein PIK3R3-N, ref Jones et al. 2006 / Kaushansky et al. Chem and Biol 2008): 500 nM | Kd (protein PIK3R3-NC, ref Jones et al. 2006 / Kaushansky et al. Chem and Biol 2008): 14 nM | Kd (protein PLCG1-C, ref Jones et al. 2006 / Kaushansky et al. Chem and Biol 2008): 690 nM | Kd (protein PLCG1-NC, ref Jones et al. 2006 / Kaushansky et al. Chem and Biol 2008): 720 nM | Kd (protein PTK6, ref Jones et al. 2006 / Kaushansky et al. Chem and Biol 2008): 440 nM | Kd (protein RASA1-N, ref Jones et al. 2006 / Kaushansky et al. Chem and Biol 2008): 910 nM | Kd (protein SHC1, ref Jones et al. 2006 / Kaushansky et al. Chem and Biol 2008): 600 nM | Kd (protein SHC3, ref Jones et al. 2006 / Kaushansky et al. Chem and Biol 2008): 640 nM | Kd [8]: 600 nM | Kd (protein TXK, ref Jones et al. 2006 / Kaushansky et al. Chem and Biol 2008): 1670 nM | Kd (protein VAV2, ref Jones et al. 2006 / Kaushansky et al. Chem and Biol 2008): 300 nM | Kd (protein VAV3, ref Jones et al. 2006 / Kaushansky et al. Chem and Biol 2008): 1540 nM | Kd (protein ZAP70-C, ref Jones et al. 2006 / Kaushansky et al. Chem and Biol 2008): 1440 nM

DNPDpYWHSRLFPd [ErbB3 pY1328, N-terminally rhodamine-labeled 13-mer phosphopeptide]
Kd [6]: 600 nM | Kd (protein HSH2D, ref Jones et al. 2006 / Kaushansky et al. Chem and Biol 2008): 1700 nM | Kd (protein MATK, ref Jones et al. 2006 / Kaushansky et al. Chem and Biol 2008): 1870 nM | Kd [7]: 1900 nM | Kd (protein RASA1-NC, ref Jones et al. 2006 / Kaushansky et al. Chem and Biol 2008): 1920 nM | Kd (protein SHC1-PTB, ref Jones et al. 2006 / Kaushansky et al. Chem and Biol 2008): 220 nM | Kd [8]: 1980 nM | Kd (protein TENC1, ref Jones et al. 2006 / Kaushansky et al. Chem and Biol 2008): 1250 nM | Kd (protein TNS4, ref Jones et al. 2006 / Kaushansky et al. Chem and Biol 2008): 850 nM

KQLLpYSEAKTPId [ErbB3 pY868, N-terminally rhodamine-labeled 13-mer phosphopeptide]
Kd (Protein ABL2, original PM interactions, ref Jones et al. 2006 / Kaushansky et al. Chem and Biol 2008): 70 nM | Kd [3]: 1780 nM | Kd [4]: 1760 nM | Kd (Protein NCK2, original PM interactions, ref Jones et al. 2006 / Kaushansky et al. Chem and Biol 2008): 2000 nM | Kd (Protein PIK3R3-NC, original PM interactions, ref Jones et al. 2006 / Kaushansky et al. Chem and Biol 2008): 2000 nM | Kd (Protein RASA1-N, original PM interactions, ref Jones et al. 2006 / Kaushansky et al. Chem and Biol 2008): 950 nM | Kd (Protein SHC1-PTB, original PM interactions, ref Jones et al. 2006 / Kaushansky et al. Chem and Biol 2008): 2000 nM | Kd [5]: 920 nM
